Assay results from patent US20150010928A1, “MEANS AND METHODS FOR ASSESSING AN ENDOCRINE DISEASE OR DISORDER” (priority 2012, published 2015).
Marks after values point to notes of the source that are not given here.

Tested on: male rats
Assay: Plasma metabolite profiling (GC-MS, LC-MS, SPE-LC-MS) in male rats dosed once daily over 28 days (OECD 407)
Type: in vivo, rat
Parameters: key to erythro-Sphingoside (d18:1) / Tricosanoic acid (C23:0) / beta-Sitosterol / Tryptophan: ratio of treated group mean to untreated control group mean
Conditions: high dose
Experimental: Each dose group in the studies consisted of five rats per sex. Additional groups of each 5 male and female animals served as controls. […] All animals of the animal population were kept under the same constant temperature (20-24±3° C.) and the same constant humidity (30-70%). The animals of the animal population were fed ad libitum. The food to be used was essentially free of chemical or microbial contaminants. Drinking water was also offered ad libitum. Accordingly, the water was free of chemical and microbial contaminants as laid down in the European Drinking Water Directive 98/83/EG. The illumination period was 12 hours light followed by 12 hours darkness (12 hours light, from 6:00 to 18:00, and 12 hours darkness, from 18:00 to 6:00). […] The test substances (compounds) in the Tables 1 to 17 below were dosed and administered as described in the Table 18.
In the morning of day 7, 14, and 28, blood was taken from the retroorbital venous plexus from fasted anaesthetized animals. From each animal, 1 ml of blood was collected with EDTA as anticoagulant. The samples were centrifuged for generation of plasma. All plasma samples were covered with a N2 atmosphere and then stored at −80° C. until analysis.
For mass spectrometry-based metabolite profiling analyses plasma samples were extracted and a polar and a non-polar (lipid) fraction was obtained. For GC-MS analysis, the non-polar fraction was treated with methanol under acidic conditions to yield the fatty acid methyl esters. Both fractions were further derivatised with O-methyl-hydroxyamine hydrochloride and pyridine to convert Oxogroups to O-methyloximes and subsequently with a silylating agent before analysis. In LC-MS analysis, both fractions were reconstituted in appropriate solvent mixtures. HPLC was performed by gradient elution on reversed phase separation columns. Mass spectrometric detection which allows target and high sensitivity MRM (Multiple Reaction Monitoring) profiling in parallel to a full screen analysis was applied as described in WO2003073464.
Steroids and their metabolites were measured by online SPE-LC-MS (Solid phase extraction-LC-MS).
Following comprehensive analytical validation steps, the data for each analyte were normalized against data from pool samples. These samples were run in parallel through the whole process to account for process variability. The significance of treatment group values specific for sex, treatmentduration and metabolite was determined by comparing means of the treated groups to the means of the respective untreated control groups using WELCH-test and quantified with treatment ratios versus control and p-values.
The identification of the most important biomarkers per toxicity pattern was done by a ranking of the analytes in the tables below. Therefore the metabolic changes in reference treatments of a given pattern (shown in the table) were compared with changes of the same metabolite in other unrelated treatments. […] The maximum absolute value of the respective TVALUE was taken to indicate the most important metabolite for the pattern.

Structure (SMILES): CC(C)C(=O)Nc1ccc([N+](=O)[O-])c(C(F)(F)F)c1 [Flutamide]
- 3-O-Methylsphingosine (d18:1) (m7, Table 10a): 1.27 *
- Nervonic acid (C24:cis[15]1) (m7, Table 10a): 1.39 *
- Stearic acid (C18:0) (m7, Table 10a): 1.15 *
- alpha-Tocopherol (m7, Table 10a): 1.55 *
- threo-Sphingosine (d18:1) (m7, Table 10a): 1.39 *
- Thyroxine (T4) (m7, Table 10b): 0.46 *
- trans-4-Hydroxyproline (m7, Table 10b): 0.79 *
- 3-Methoxytyrosine (m7, Table 11a): 1.97 *
- 3-O-Methylsphingosine (d18:1) (m7, Table 11a): 1.27 *
- Androstenedione (m7, Table 11a): 19.42 *
- Behenic acid (C22:0) (m7, Table 11a): 1.89 *
- Dodecanol (m7, Table 11a): 1.2 *
- Eicosanoic acid (C20:0) (m7, Table 11a): 2.11 *
- Galactose, lipid fraction (m7, Table 11a): 1.44 *
- Glycerol phosphate, lipid fraction (m7, Table 11a): 1.57 *
- Nervonic acid (C24:cis[15]1) (m7, Table 11a): 1.39 *
- Noradrenaline (Norepinephrine) (m7, Table 11a): 1.36 *
- Phosphatidylcholine (C18:0, C18:2) (m7, Table 11a): 1.38 *
- Phytosphingosine (m7, Table 11a): 2.29 *
- Stearic acid (C18:0) (m7, Table 11a): 1.15 *
- Testosterone (m7, Table 11a): 10.33 *
- Tryptophan (m7, Table 11a): 1.22 *
- dihomo-gamma-Linolenic acid (C20:cis[8,11,14]3) (m7, Table 11a): 1.55 *
- myo-Inositol-2-phosphate, lipid fraction (m7, Table 11a): 2.52 *
- threo-Sphingosine (d18:1) (m7, Table 11a): 1.39 *
- 3-Hydroxybutyrate (m7, Table 11b): 0.53 *
- 4-Hydroxy-3-methoxyphenylglycol (HMPG) (m7, Table 11b): 0.67 *
- 18-Hydroxy-11-deoxycorticosterone (m7, Table 11b): 0.75^
- 21-Hydroxyprogesterone (11-Deoxycorticosterone) (m7, Table 11b): 0.65^
- Citrate (m7, Table 11b): 0.74 *
- Coenzyme Q9 (m7, Table 11b): 0.73 *
- Coenzyme Q10 (m7, Table 11b): 0.58 *
- Corticosterone (m7, Table 11b): 0.83^
- Metanephrine (m7, Table 11b): 0.5 *
- Palmitoleic acid (C16:cis[9]1) (m7, Table 11b): 0.77 *
- Progesterone (m7, Table 11b): 0.64^
- trans-4-Hydroxyproline (m7, Table 11b): 0.79 *
- 3-O-Methylsphingosine (d18:1) (m14, Table 10a): 0.78
- 5-O-Methylsphingosine (d18:1) (m14, Table 10a): 0.81
- Cysteine (m14, Table 10a): 0.96
- Lignoceric acid (C24:0) (m14, Table 10a): 0.9
- Nervonic acid (C24:cis[15]1) (m14, Table 10a): 0.93
- Oleic acid (C18:cis[9]1) (m14, Table 10a): 1.1
- Stearic acid (C18:0) (m14, Table 10a): 1.01
- alpha-Tocopherol (m14, Table 10a): 1.24
- erythro-Sphingoside (d18:1) (m14, Table 10a): 0.79
- threo-Sphingosine (d18:1) (m14, Table 10a): 0.95
- Oleic acid (C18:cis[9]1) (m14, Table 10b): 1.1
- Phosphatidylcholine (C16:0, C16:0) (m14, Table 10b): 0.7 *
- Thyroxine (T4) (m14, Table 10b): 0.57^
- trans-4-Hydroxyproline (m14, Table 10b): 0.89 *
- 3-Methoxytyrosine (m14, Table 11a): 1.47 *
- 3-O-Methylsphingosine (d18:1) (m14, Table 11a): 0.78
- 5-O-Methylsphingosine (d18:1) (m14, Table 11a): 0.81
- Androstenedione (m14, Table 11a): 46.48 *
- Arachidonic acid (C20:cis[5,8,11,14]4) (m14, Table 11a): 0.99
- Cholesterol (m14, Table 11a): 1.07
- Cysteine (m14, Table 11a): 0.96
- Eicosanoic acid (C20:0) (m14, Table 11a): 1.84 *
- Galactose, lipid fraction (m14, Table 11a): 1.07
- Glycerol phosphate, lipid fraction (m14, Table 11a): 1.18 *
- Indole-3-lactic acid (m14, Table 11a): 1.06
- Lignoceric acid (C24:0) (m14, Table 11a): 0.9
- Nervonic acid (C24:cis[15]1) (m14, Table 11a): 0.93
- Noradrenaline (Norepinephrine) (m14, Table 11a): 1.85 *
- Phosphate, lipid fraction (m14, Table 11a): 1.08
- Phosphatidylcholine (C18:0, C18:2) (m14, Table 11a): 1.17
- Phosphatidylcholine (C18:0, C20:3) (m14, Table 11a): 1.01
- Phosphatidylcholine (C18:0, C22:6) (m14, Table 11a): 0.96
- Phosphatidylcholine (C18:0,C18:1) (m14, Table 11a): 1.15
- Stearic acid (C18:0) (m14, Table 11a): 1.01
- Testosterone (m14, Table 11a): 16.89 *
- Tricosanoic acid (C23:0) (m14, Table 11a): 0.9
- Tryptophan (m14, Table 11a): 1.15
